From ChEMBL document CHEMBL5518215, “Unlocking Antibacterial Potential: Key-Site-Based Regulation of Antibacterial Spectrum of Peptides” (J Med Chem, 2024)
Calls of active or inactive are those of the source. No cut-off for these calls is given here.

Assays:
[1] = tested on: Staphylococcus aureus; test: Induction of morphological changes in Staphylococcus aureus 29213 assessed as loose distribution of cellular contents by using transmission electron microscopy; format: functional, organism-based
[2] = Cytotoxicity against human HEK-293T cells assessed as cell survival rate at 64 uM measured after 8 hrs by MTT assay relative to control; format: toxicity, cell-based; details: read-out: Activity
[3] = tested on: Escherichia coli; test: Inhibition of respiratory chain dehydrogenase activity in mid-log phase Escherichia coli 25922 measured after 4 hrs by Red-tetraazoline based spectrophotometry assay
[4] = tested on: Escherichia coli; test: Induction of morphological changes in Escherichia coli 25922 assessed as membrane damage and cytoplasmic leakage by using transmission electron microscopy; format: functional, organism-based
[5] = tested on: Escherichia coli; test: Antimicrobial activity against Escherichia coli 25922 assessed as absence bacterial growth measured after 18 to 24 hrs incubation in presence of NaCl by NCCLS method; format: functional; details: time 18-24 hrs
[6] = tested on: Escherichia coli; test: Induction of ROS production in mid-log phase Escherichia coli 25922 assessed as fluorescence intensity at 1 to 64 uM by DCFH-DA assay; format: functional, organism-based; details: dose 1-64 µM
[7] = tested on: Escherichia coli; test: Antimicrobial activity against Escherichia coli 25922 assessed as absence bacterial growth measured after 18 to 24 hrs incubation in presence of 25% serum by NCCLS method; format: functional; details: time 18-24 hrs
[8] = tested on: Escherichia coli; test: Antimicrobial activity against Escherichia coli 25922 assessed as absence bacterial growth measured after 18 to 24 hrs incubation in presence of MgCl2 by NCCLS method; format: functional; details: time 18-24 hrs
[9] = tested on: Enterococcus faecalis; test: Antimicrobial activity against Enterococcus faecalis 29212 assessed as absence bacterial growth measured after 18 to 24 hrs incubation by NCCLS method; format: functional; details: time 18-24 hrs
[10] = tested on: Listeria monocytogenes; test: Antimicrobial activity against Listeria monocytogenes 1.10753 assessed as bacterial killing measured after 16 hrs incubation; format: functional
[11] = tested on: Staphylococcus aureus; test: Antimicrobial activity against Staphylococcus aureus 29213 assessed as absence bacterial growth measured after 18 to 24 hrs incubation by NCCLS m; format: functional; details: time 18-24 hrs
[12] = tested on: Staphylococcus aureus; test: Antimicrobial activity against Methicillin-resistant Staphylococcus aureus 43300 assessed as bacterial killing measured after 16 hrs incubation; format: functional
[13] = tested on: Bacillus cereus; test: Antimicrobial activity against Bacillus cereus 1.932 assessed as bacterial killing measured after 16 hrs incubation; format: functional
[14] = Cytotoxicity against mouse RAW264.7 cells assessed as cell survival rate at 32 to 64 uM measured after 8 hrs by MTT assay relative to control; format: toxicity, cell-based; details: dose 32-64 µM, read-out: Activity
[15] = tested on: Staphylococcus aureus; test: Effect on inner membrane fluidity in Staphylococcus aureus 29213 assessed as reduction in intracellular membrane fluidity by measuring fluorescence intensity of Laurdan-GP after 60 mins by spectrophotometry; format: functional, organism-based
[16] = tested on: Escherichia coli; test: Antibacterial activity against Escherichia coli 25922 assessed as absence bacterial growth measured after 18 to 24 hrs incubation at pH 10 by NCCLS method; format: functional; details: time 18-24 hrs
[17] = tested on: Salmonella typhimurium; test: Antimicrobial activity against Salmonella typhimurium C7731 assessed as absence bacterial growth measured after 18 to 24 hrs incubation by NCCLS method; format: functional, Salmonella enterica subsp. enterica serovar Typhimurium; details: Salmonella enterica, time 18-24 hrs
[18] = tested on: Cell membrane; test: Induction of cytoplasmic membrane disruption in Staphylococcus aureus 29213 assessed as increase in fluorescence intensity at 2 to 64 uM by DiSC3-5 probe based assay; format: cell membranes; details: dose 2-64 µM, time <= 30.0 min, TDE = time-dependent effect
[19] = tested on: Cell membrane; test: Induction of cytoplasmic membrane disruption in Escherichia coli 25922 assessed as increase in fluorescence intensity at 2 to 64 uM by DiSC3-5 probe based assay; format: cell membranes; details: dose 2-64 µM, time <= 30.0 min, TDE = time-dependent effect
[20] = tested on: Escherichia coli; test: Induction of morphological changes in Escherichia coli 25922 assessed as changes in cell surface by measuring signs of disruption by using scanning electron microscopy; format: functional, organism-based
[21] = tested on: Escherichia coli; test: Antimicrobial activity against Escherichia coli 25922 assessed as absence bacterial growth measured after 18 to 24 hrs incubation by NCCLS method; format: functional; details: time 18-24 hrs
[22] = tested on: Escherichia coli; test: Effect on inner membrane fluidity in Escherichia coli 25922 assessed as reduction in intracellular membrane fluidity by measuring fluorescence intensity of Laurdan-GP after 60 mins by spectrophotometry; format: functional, organism-based
[23] = tested on: Cell membrane; test: Induction of membrane disruption in Escherichia coli 25922 assessed as increase in extracellular ATP level at 4 to 32 uM measured after 1 hr; format: cell membranes; details: dose 4-32 µM
[24] = Cytotoxicity against mouse RAW264.7 cells assessed as cell survival rate measured after 8 hrs by MTT assay; format: toxicity, cell-based
[25] = tested on: Bacillus cereus; test: Antimicrobial activity against Bacillus cereus 1.932 assessed as absence bacterial growth measured after 18 to 24 hrs incubation by NCCLS method; format: functional; details: time 18-24 hrs
[26] = Cytotoxicity against human HEK-293T cells assessed as cell survival rate measured after 8 hrs by MTT assay; format: toxicity, cell-based
[27] = tested on: Escherichia coli; test: Antimicrobial activity against Escherichia coli 25922 assessed as absence bacterial growth measured after 18 to 24 hrs incubation in presence of 50% serum by NCCLS method; format: functional; details: time 18-24 hrs
[28] = tested on: Escherichia coli; test: Antibacterial activity against Escherichia coli 25922 assessed as absence bacterial growth measured after 8 hrs treated with H2O2; format: functional
[29] = tested on: DNA; test: Binding affinity to DNA in Staphylococcus aureus 29213 incubated for 1 hr by electrophoresis; format: nucleic-acid assay
[30] = tested on: Escherichia coli; test: Antibacterial activity against Escherichia coli 25922 assessed as absence bacterial growth measured after 18 to 24 hrs incubation at pH 4 by NCCLS method; format: functional; details: time 18-24 hrs
[31] = tested on: Escherichia coli; test: Antimicrobial activity against Escherichia coli K88 assessed as bacterial killing measured after 16 hrs incubation; format: functional
[32] = tested on: Salmonella typhimurium; test: Antimicrobial activity against Salmonella typhimurium C7731 assessed as bacterial killing measured after 16 hrs incubation; format: functional, Salmonella enterica subsp. enterica serovar Typhimurium; details: Salmonella enterica
[33] = tested on: Escherichia coli; test: Antibacterial activity against Escherichia coli 25922 assessed as absence bacterial growth measured after 4 hrs treated with H2O2; format: functional
[34] = tested on: Staphylococcus epidermidis; test: Antimicrobial activity against Staphylococcus epidermidis 12228 assessed as absence bacterial growth measured after 18 to 24 hrs incubation by NCCLS method; format: functional; details: time 18-24 hrs
[35] = tested on: Cell membrane; test: Induction of membrane disruption in Staphylococcus aureus 29213 assessed as increase in extracellular ATP level at 4 to 32 uM measured after 1 hr; format: cell membranes; details: dose 4-32 µM
[36] = tested on: Lipopolysaccharide (LPS); test: Binding affinity to Escherichia coli O111:B4 LPS assessed as fluorescence intensity measured after 1 hr by spectrophotometry; format: subcellular; details: dose 2-16 µM
[37] = tested on: Acinetobacter baumannii; test: Antimicrobial activity against Acinetobacter baumannii 1.6769 assessed as bacterial killing measured after 16 hrs incubation; format: functional
[38] = tested on: Escherichia coli; test: Antimicrobial activity against Escherichia coli K88 assessed as absence bacterial growth measured after 18 to 24 hrs incubation by NCCLS method; format: functional; details: time 18-24 hrs
[39] = tested on: Acinetobacter baumannii; test: Antimicrobial activity against Acinetobacter baumannii 1.6769 assessed as absence bacterial growth measured after 18 to 24 hrs incubation by NCCLS method; format: functional; details: time 18-24 hrs
[40] = Antimicrobial activity against Salmonella pullorum C7913 assessed as absence bacterial growth measured after 18 to 24 hrs incubation by NCCLS method; format: functional, Salmonella enterica subsp. enterica serovar Pullorum; details: Salmonella enterica, time 18-24 hrs
[41] = tested on: Escherichia coli; test: Antimicrobial activity against Escherichia coli 25922 assessed as absence bacterial growth measured after 18 to 24 hrs incubation in presence of NH4Cl by NCCLS method; format: functional; details: time 18-24 hrs
[42] = tested on: Escherichia coli; test: Antimicrobial activity against Escherichia coli 25922 assessed as absence bacterial growth measured after 18 to 24 hrs incubation in presence of KCl by NCCLS method; format: functional; details: time 18-24 hrs

H-GKLWLKAGKLWLKGGKLWLKG-NH2
Activity [1]: Active
viability at 8 h, 64 µM [2]: > 80%
inhibition [3]: Active
Activity [4]: Active
MIC [5]: 16 µM
Activity [6]: Active
MIC [7]: 32 µM
MIC [8]: 8 µM
MIC [9]: 4 µM
MBC [10]: > 32 µM
MIC [11]: 4 µM
MBC [12]: 4 µM
MBC [13]: 2 µM
viability at 8 h, up to 64 µM [14]: 60%
Activity [15]: Active
MIC [16]: 2 µM
MIC [17]: 8 µM
Activity [18]: Tde
Activity [19]: Tde
Activity [20]: Active
MIC [21]: 2 µM
Activity [22]: Active
Activity [23]: Active
IC50 at 8 h [24]: > 64 µM
MIC [25]: 2 µM
IC50 at 8 h [26]: > 64 µM
MIC [27]: > 32 µM
MIC [28]: 2 µM
Activity [29]: Active
MIC [30]: > 64 µM
MBC [31]: 0.5 µM
MBC [32]: 32 µM
MIC [33]: 2 µM
MIC [34]: 4 µM
Activity [35]: Active
Activity [36]: Dose-Dependent Effect
MBC [37]: 2 µM
MIC [38]: 0.5 µM
MIC [39]: 2 µM
MIC [40]: 1 µM
MIC [41]: 2 µM
MIC [42]: 2 µM
